The record followed here is ChEMBL document CHEMBL3853306, “Antidepressant-like effects and mechanisms of flavonoids and related analogues” (Eur J Med Chem, 2016).

Test [1] in a line: Inhibition of MAO in mouse brain mitochondrial fraction using kynuramine as substrate assessed as formation of 4-hydroxyquinoline by fluorescence spectrometric method. The format is tissue-based.
A short description of test [2]: Antidepressant- like activity in mouse assessed as duration of immobility time at 10 mg/kg, ip by forced swimming test (reference value: 141.5 +/- 10.9 secs). It counts as functional, organism-based.
The nature of test [3]: Antidepressant- like activity in mouse assessed as decrease in immobility time at 30 mg/kg, po by tail suspension test relative to control. The format is functional, organism-based. On the set-up: scale not given: the % may be the effect or the level left.
Test [4] can be described thus: Antidepressant- like activity in mouse assessed as decrease in immobility time at 30 mg/kg, po by forced swimming test relative to control. On the set-up: scale not given: the % may be the effect or the level left. It counts as functional, organism-based.
Test [5] in a line: Antidepressant- like activity in mouse assessed as duration of immobility time at 10 mg/kg, ip by tail suspension test (reference value: 130.5 +/- 9.6 secs). The format is functional, organism-based.
Test [6] in a line: Antidepressant activity in albino mouse assessed as decrease in immobility time at 10 mg/kg, ip administered 30 mins prior to testing by forced swimming test relative to control. On the set-up: scale not given: the % may be the effect or the level left. It counts as functional, organism-based.
Test [7] in a line: Antidepressant activity in albino mouse assessed as immobility time at 10 mg/kg, ip administered 30 mins prior to testing by forced swimming test (reference value: 141 +/- 14.2 secs). The format is functional, organism-based.
The nature of test [8]: Antidepressant- like activity in Balb/c mouse assessed as immobility time at 1 mg/kg, ip administered 30 mins prior to testing by forced swimming test (reference value: 123.3 +/- 10.7 secs). The format is functional, organism-based.
Test [9] is described as follows: Antidepressant- like activity in Balb/c mouse assessed as immobility time at 10 mg/kg, ip administered 30 mins prior to testing by forced swimming test (reference value: 123.3 +/- 10.7 secs). The format is functional, organism-based.
A short description of test [10]: Antidepressant- like activity in Balb/c mouse assessed as immobility time at 1 mg/kg, ip administered 30 mins prior to testing by tail suspension test (reference value: 130.5 +/- 9.6 secs). It counts as functional, organism-based.
Test [11] can be described thus: Antidepressant- like activity in Balb/c mouse assessed as immobility time at 5 mg/kg, ip administered 30 mins prior to testing by forced swimming test (reference value: 123.3 +/- 10.7 secs). The format is functional, organism-based.
Test [12] can be described thus: Antidepressant- like activity in Balb/c mouse assessed as immobility time at 5 mg/kg, ip administered 30 mins prior to testing by tail suspension test (reference value: 130.5 +/- 9.6 secs). It counts as functional, organism-based.
Test [13] can be described thus: Antidepressant- like activity in Balb/c mouse assessed as immobility time at 10 mg/kg, ip administered 30 mins prior to testing by tail suspension test (reference value: 130.5 +/- 9.6 secs). It counts as functional, organism-based.
Test [14] has as its system Mus musculus. Kind of test: In vivo inhibition of MAOA in ICR mouse brain at 20 mg/kg administered via oral gavage using kynuramine dihydrobromide as substrate preincubated for 15 mins followed by substrate addition measured after 30 mins in presence of MAOB inhibitor deprenyl by fluorescence spectrometric method. It counts as functional.

The structures appear in SMILES notation. ≈ marks a conversion by molar mass, not a printed value.

With `O=C(O)[C@H]1O[C@@H](Oc2cc(O)c3c(=O)cc(-c4ccc(O)cc4)oc3c2)[C@H](O)[C@@H](O)[C@@H]1O`, the IC50 in [1] is 81.7 µg/mL (≈ 183 µM).
For `CC(C)=CCOc1ccc(C(=O)/C=C/c2cccc(Br)c2)c(O)c1`, the TIME in test [2] is 0.0102 h; in [5], 0.0118 h. Moreover, the Activity turned out to be 67.6% in test [3] and 74.1% in test [4].
For `COc1ccc(/C=C/C(=O)c2ccc(OCC=C(C)C)cc2O)cc1` the same measures were 0.0112 h, 0.0141 h, 61% and 71.4%.
For `CC(C)=CCOc1ccc(C(=O)/C=C/c2c(Cl)cccc2Cl)c(O)c1`, the TIME was determined as 0.0116 h in [2] and 0.0135 h in [5].
For the compound `O=C1c2c(O)cc(O)cc2O[C@H](c2ccc(O)c(O)c2)[C@H]1O` [(+)-TAXIFOLIN], the IC50 in test [1] was 153.1 µg/mL (≈ 503 µM).
Turning to `COc1cc(C2CC(=O)c3ccc(O)cc3O2)ccc1O` (centres undefined), the Activity in test [6] turned out to be 34.6%. Further, the TIME in test [7] came to 0.0256 h.
Take `CC(C)=CCOc1ccc(C(=O)/C=C/c2ccc3ccccc3c2)c(O)c1`: the TIME in [8] was 0.0254 h; in test [9], 0.0257 h; in test [10], 0.0295 h; in [11], 0.022 h; in test [12], 0.0217 h; in test [13], 0.0241 h.
Regarding `O=C1c2c(O)cc(O)cc2O[C@H](c2ccc(O)cc2)[C@H]1O` [DIHYDROKAEMPFEROL], in [1], the IC50 was 154.7 µg/mL (≈ 537 µM).
On the same count and under the same terms, then `O=c1cc(-c2ccc(O)c(O)c2)oc2cc(O[C@@H]3O[C@H](CO)[C@@H](O)[C@H](O)[C@H]3O)cc(O)c12` [GALUTEOLIN], with 118.6 µg/mL (≈ 265 µM).
Regarding `O=c1c(O)c(-c2ccc(O)c(O)c2)oc2cc(O)ccc12` [FISETIN], the inhibition in vivo at 20 mg/kg in [14] is 14.7%.
Consider `CNCCC(Oc1ccc(C(F)(F)F)cc1)c1ccccc1` (centres undefined), for which the TIME in [2] is 0.0174 h; in test [9] it was 0.0229 h; in test [5], 0.0112 h; in test [7] it was 0.0195 h; in [13], 0.021 h.
Consider `O=C1CC(c2ccc(Cl)cc2Cl)Oc2cc(O)ccc21` (centres undefined), for which, in test [6], the Activity was determined as 30.4%.

In general, IC50 refers to the concentration that gives 50% inhibition. In general, inhibition in vivo refers to the relative decrease from the control value, in per cent.
